Data on 17 molecules can be found in PubChem BioAssay AID256 (DTP/NCI, 2004).

Where “and” joins values, the source holds several entries; their conditions need not be identical. Identical values can stand only once. Toxic doses and inconclusive results are not listed.

This test relates to CD2F1 mice, L1210 leukemia ip, survival T/C. Nature of the test: NCI In Vivo Anticancer Drug Screen. Data for tumor model L1210 Leukemia (intraperitoneal) in CD2F1 (CDF1) mice. The following applies: higher = longer survival. The procedure, abridged: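 Each value reflects a quotient of treated over vehicle control outcomes in mice with a transplanted tumor.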
Setting [1] is: endpoint: mean survival time, dose: 12.5 mg/kg/injection, schedule: Q01DX009 (ip), vehicle: saline with Tween-80.
The mark [2] stands for this setting: endpoint: mean survival time, dose: 25.0 mg/kg/injection, schedule: Q01DX009 (ip), vehicle: saline with Tween-80.
Setting [3] is: endpoint: mean survival time, dose: 50.0 mg/kg/injection, schedule: Q01DX009 (ip), vehicle: saline with Tween-80.
The mark [4] stands for this setting: endpoint: mean survival time, dose: 100.0 mg/kg/injection, schedule: Q01DX009 (ip), vehicle: saline with Tween-80.
The mark [5] stands for this setting: endpoint: mean survival time, dose: 100.0 mg/kg/injection, schedule: Q01DX009 (ip), vehicle: saline.
Setting [6] is: endpoint: mean survival time, dose: 200.0 mg/kg/injection, schedule: Q01DX009 (ip), vehicle: saline with Tween-80.
Where [7] appears, read: endpoint: mean survival time, dose: 200.0 mg/kg/injection, schedule: Q01DX009 (ip), vehicle: saline.
Where [8] appears, read: endpoint: mean survival time, dose: 100.0 mg/kg/injection, schedule: Q04DX003 (ip), vehicle: saline with Tween-80.
Where [9] appears, read: endpoint: mean survival time, dose: 400.0 mg/kg/injection, schedule: Q01DX009 (ip), vehicle: saline with Tween-80.

Turning to `COC(=O)C(Cl)(Cl)N=Nc1c(Cl)cc(Cl)c(C)c1Cl`, the T/C runs as follows: (endpoint: mean survival time, dose: 6.25 mg/kg/injection, schedule: Q01DX009 (ip), vehicle: saline with Tween-80) 96 % of control; (endpoint: mean survival time, dose: 6.25 mg/kg/injection, schedule: Q01DX009 (ip), vehicle: saline) 93 % of control; under setting [1], 100 % of control; (endpoint: mean survival time, dose: 12.5 mg/kg/injection, schedule: Q01DX009 (ip), vehicle: saline) 98 % of control; under setting [2], 97 % of control; (endpoint: mean survival time, dose: 25.0 mg/kg/injection, schedule: Q01DX009 (ip), vehicle: saline) 93 % of control. Also, the T/C is, setting by setting: under setting [3], 94 % of control; (endpoint: mean survival time, dose: 50.0 mg/kg/injection, schedule: Q01DX009 (ip), vehicle: saline) 98 % of control; under setting [4], 102 % of control; under setting [5], 90 % of control; under setting [6], 86 % of control; under setting [7], 86 % of control.
With `CC[C@@]1(OC(=O)CN2CCCC2)C(=O)OCc2c1cc1n(c2=O)Cc2cc3ccccc3nc2-1`, the T/C was 108 % of control (endpoint: median survival time, dose: 6.25 mg/kg/injection, schedule: Q04DX002 (ip), vehicle: water); 113 % of control (endpoint: median survival time, dose: 12.5 mg/kg/injection, schedule: Q04DX002 (ip), vehicle: water); 158 % of control and 166 % of control (endpoint: median survival time, dose: 50.0 mg/kg/injection, schedule: Q04DX002 (ip), vehicle: water).
Turning to `CC(=O)OCC1OC(n2ncnc2CI)C(OC(C)=O)C(OC(C)=O)C1OC(C)=O` (centres undefined), the T/C runs as follows: (endpoint: median survival time, dose: 12.5 mg/kg/injection, schedule: Q01DX005 (ip), vehicle: distilled water + Tween-80) 105 % of control; (endpoint: median survival time, dose: 25.0 mg/kg/injection, schedule: Q01DX005 (ip), vehicle: distilled water + Tween-80) 105 % of control; (endpoint: median survival time, dose: 50.0 mg/kg/injection, schedule: Q01DX005 (ip), vehicle: distilled water + Tween-80) 96 % of control.
`O=C1N(Cl)C2C(N1Cl)N(Cl)C(=O)N2Cl` (centres undefined): the T/C by setting is: (endpoint: mean survival time, dose: 25.0 mg/kg/injection, schedule: Q04DX003 (ip), vehicle: saline with Tween-80) 98 % of control; (endpoint: mean survival time, dose: 50.0 mg/kg/injection, schedule: Q04DX003 (ip), vehicle: saline with Tween-80) 104 % of control; under setting [8], 89 % of control.
`C=CCc1ccc(OC(=O)Nc2ccc(C)c([N+](=O)[O-])c2)c(OC)c1`: the T/C is, setting by setting: under setting [1], 98 % of control; under setting [2], 103 % of control; under setting [3], 98 % of control; under setting [6], 88 % of control.
As for `CN(C)N=Nc1cc(C(N)=O)cc(C(N)=O)c1`, the T/C was 101 % of control (endpoint: mean survival time, dose: 18.75 mg/kg/injection, schedule: Q01DX009 (ip), vehicle: Klucel (hydroxypropylcellulose) (HPC)); 106 % of control (endpoint: mean survival time, dose: 37.5 mg/kg/injection, schedule: Q01DX009 (ip), vehicle: Klucel (hydroxypropylcellulose) (HPC)); 124 % of control (endpoint: mean survival time, dose: 75.0 mg/kg/injection, schedule: Q01DX009 (ip), vehicle: Klucel (hydroxypropylcellulose) (HPC)).
As to `O=C(CNC(=O)NCc1ccco1)NNC(=O)Nc1ccc(F)c(Cl)c1`, the T/C under setting [4] was 93 % of control, the T/C under setting [6] was 88 % of control and the T/C under setting [9] was 96 % of control.
As to `[Cl][Pt+2][Cl].[NH-]C1CCC1.[NH2-]`, the T/C was 98 % of control (endpoint: mean survival time, dose: 0.39 mg/kg/injection, schedule: Q04DX003 (ip), vehicle: saline); 100 % of control (endpoint: mean survival time, dose: 0.78 mg/kg/injection, schedule: Q04DX003 (ip), vehicle: saline); 120 % of control (endpoint: mean survival time, dose: 1.56 mg/kg/injection, schedule: Q04DX003 (ip), vehicle: saline); 110 % of control (endpoint: mean survival time, dose: 3.12 mg/kg/injection, schedule: Q04DX003 (ip), vehicle: distilled water + Tween-80); 200 % of control (endpoint: mean survival time, dose: 3.12 mg/kg/injection, schedule: Q04DX003 (ip), vehicle: water); 86 % of control (endpoint: mean survival time, dose: 6.25 mg/kg/injection, schedule: Q04DX003 (ip), vehicle: distilled water + Tween-80). Besides, the T/C (endpoint: mean survival time, dose: 6.25 mg/kg/injection, schedule: Q04DX003 (ip), vehicle: saline) was 168 % of control; the T/C (endpoint: mean survival time, dose: 6.25 mg/kg/injection, schedule: Q04DX003 (ip), vehicle: water) is 111 % of control; the T/C (endpoint: median survival time, dose: 0.38 mg/kg/injection, schedule: Q01DX009 (ip), vehicle: saline) was 122 % of control; the T/C (endpoint: median survival time, dose: 1.5 mg/kg/injection, schedule: Q01DX009 (ip), vehicle: saline) is 156 % of control and 172 % of control; the T/C (endpoint: median survival time, dose: 3.0 mg/kg/injection, schedule: Q01DX009 (ip), vehicle: saline) was 184 % of control and 213 % of control; the T/C (endpoint: median survival time, dose: 3.0 mg/kg/injection, schedule: Q01DX009 (ip), vehicle: suspension in saline) was 314 % of control. Besides, the T/C is, setting by setting: (endpoint: median survival time, dose: 6.0 mg/kg/injection, schedule: Q01DX009 (ip), vehicle: saline) 116 % of control and 123 % of control; (endpoint: median survival time, dose: 12.0 mg/kg/injection, schedule: Q01DX009 (ip), vehicle: suspension in saline) 111 % of control.
Regarding `N=c1c2ccn(C3OC(CO)C(O)C3O)c2ncn1N` (centres undefined), the T/C runs as follows: (endpoint: mean survival time, dose: 12.5 mg/kg/injection, schedule: Q01DX005 (ip), vehicle: water) 115 % of control; (endpoint: mean survival time, dose: 25.0 mg/kg/injection, schedule: Q01DX005 (ip), vehicle: water) 110 % of control; (endpoint: mean survival time, dose: 50.0 mg/kg/injection, schedule: Q01DX005 (ip), vehicle: water) 115 % of control and 116 % of control; (endpoint: mean survival time, dose: 100.0 mg/kg/injection, schedule: Q01DX005 (ip), vehicle: water) 94 % of control.
Regarding `C[C@]12C=CC(=O)C=C1CC[C@@H]1[C@@H]2[C@@H](O)C[C@@]2(C)[C@H]1CC[C@]2(O)C(=O)CO`, the T/C runs as follows: (endpoint: mean survival time, dose: 12.5 mg/kg/injection, schedule: Q01DX010 (sc), vehicle: steriod suspending solution) 108 % of control; (endpoint: mean survival time, dose: 25.0 mg/kg/injection, schedule: Q01DX009 (sc), vehicle: steriod suspending solution) 106 % of control and 109 % of control; (endpoint: mean survival time, dose: 25.0 mg/kg/injection, schedule: Q01DX010 (sc), vehicle: steriod suspending solution) 108 % of control; (endpoint: mean survival time, dose: 50.0 mg/kg/injection, schedule: Q01DX009 (sc), vehicle: steriod suspending solution) 113 % of control and 106 % of control; (endpoint: mean survival time, dose: 50.0 mg/kg/injection, schedule: Q01DX010 (sc), vehicle: steriod suspending solution) 112 % of control; (endpoint: mean survival time, dose: 100.0 mg/kg/injection, schedule: Q01DX009 (sc), vehicle: steriod suspending solution) 116 % of control. Further, the T/C by setting is: (endpoint: mean survival time, dose: 100.0 mg/kg/injection, schedule: Q01DX010 (sc), vehicle: steriod suspending solution) 108 % of control; (endpoint: mean survival time, dose: 200.0 mg/kg/injection, schedule: Q01DX009 (sc), vehicle: steriod suspending solution) 113 % of control and 116 % of control.
Regarding `CC(CCC(C)OS(C)(=O)=O)OS(C)(=O)=O` (centres undefined), the T/C by setting is: (endpoint: mean survival time, dose: 4.0 mg/kg/injection, schedule: Q01DX009 (ip), vehicle: saline) 118 % of control and 107 % of control; (endpoint: mean survival time, dose: 8.0 mg/kg/injection, schedule: Q01DX009 (ip), vehicle: saline) 110 % of control.
As for `COC(=O)C1C(O)C(C)C(O)OC1C(C)C(O)C(C)/C=C\C=C(/C)C(=O)Nc1c(C)c(OC(C)=O)c2c(c1O)C(=O)C(C)=C1OCOC(/C(C)=C/C(C)=O)=C12` (centres undefined), the T/C is 97 % of control under setting [5] and 101 % of control under setting [7].
`CCCC[N+](CCCC)(CCCC)Cc1ccccc1`: the T/C reads like this: (endpoint: mean survival time, dose: 1.5 mg/kg/injection, schedule: Q04DX003 (ip), vehicle: saline) 100 % of control; (endpoint: mean survival time, dose: 3.0 mg/kg/injection, schedule: Q04DX003 (ip), vehicle: saline) 97 % of control; (endpoint: mean survival time, dose: 6.0 mg/kg/injection, schedule: Q04DX003 (ip), vehicle: saline) 94 % of control.
On to `NC(N)=NNC(=O)C(=O)O`, for which the T/C under setting [5] is 98 % of control; the T/C under setting [7] is 110 % of control; the T/C (endpoint: mean survival time, dose: 400.0 mg/kg/injection, schedule: Q01DX009 (ip), vehicle: saline) was 100 % of control.
As to `O=C(O)C(Cc1ccc(O)cc1)c1ccccc1` (centres undefined), the T/C by setting is: under setting [4], 103 % of control; under setting [6], 101 % of control; under setting [9], 95 % of control.
Regarding `COC(=O)c1cc(C)[nH]c(=O)c1C#N`, the T/C is, setting by setting: under setting [4], 100 % of control; under setting [8], 95 % of control; under setting [6], 100 % of control; (endpoint: mean survival time, dose: 200.0 mg/kg/injection, schedule: Q04DX003 (ip), vehicle: saline with Tween-80) 98 % of control; under setting [9], 94 % of control; (endpoint: mean survival time, dose: 400.0 mg/kg/injection, schedule: Q04DX003 (ip), vehicle: saline with Tween-80) 96 % of control.
Take `C=CCOc1ccc(Cl)cc1Cl`: the T/C by setting is: (endpoint: mean survival time, dose: 37.5 mg/kg/injection, schedule: Q01DX009 (ip), vehicle: saline with Tween-80) 93 % of control; (endpoint: mean survival time, dose: 75.0 mg/kg/injection, schedule: Q01DX009 (ip), vehicle: saline with Tween-80) 101 % of control; (endpoint: mean survival time, dose: 150.0 mg/kg/injection, schedule: Q01DX009 (ip), vehicle: saline with Tween-80) 97 % of control.
